Test results taken from patent US7531356B2, “Promoter sequences for corticotropin releasing-factor receptor CRF2α and method of identifying agents that alter the activity of the promoter sequences” (Wisconsin Alumni Research Foundation, priority 2000, dated 2009).
Ends that are not written are not given here.

Key:
[1] = system: full-length CRF2α receptor promoter (−3898 construct); test: Luciferase reporter expression from the full-length (−3898) CRF2α receptor promoter construct in transfected A7R5 cultures; format: cell-based, human; conditions: for effect of antagonist on CRF or urocortin induced reduction in expression from the full length promoter: antagonist 1 μM plus CRF or urocortin 1 μM; for change in expression from the −3898 construct compared to untreated control cultures: agonist 1 μM alone, p<0.001
Protocol: (§1) In one embodiment, the present invention is a transfected cell line. One preferred method of creating such a cell line is described as follows: The constructs described above containing the human or rat promoter fragments placed upstream of the firefly luciferase gene are used to transfect immortalized cell lines. The constructs are transfected into CHO-K1 and A7R5 cell lines using lipofectamine 2000 (Life Technologies, Rockville, Md.). […] Both cell lines can be maintained at 37° C. with 5% CO2 in DMEM supplemented with 10% fetal bovine serum. Primary cultures of the central nervous system, as well as additional immortalized cell lines, are also appropriate for these transfections. To control for transfection efficiency, the cells are also co-transfected with the pRL-TK vector (Promega, Madison, Wis.). The pRL-TK vector contains the Renilla luciferase gene downstream of the herpes simplex virus thymidine kinase promoter, a promoter which provides low to moderate levels of expression. Cell lysates are assayed for total protein using the BCA assay (Pierce, Rockford, Ill.) to standardize for the protein extraction. The level of reporter gene expression from a standardized amount of cell extract is quantified by measuring luciferase activity using a luminometer (EG&G Wallac, Gaithersburg, Md.) and the dual-luciferase reporter assay system (Promega, Madison, Wis.). Firefly luciferase activity reflects CRF2α receptor promoter activity and Renilla luciferase activity is used to normalize data between experiments.
Using a similar experimental paradigm, we treated A7R5 cultures to determine what agents may alter expression from the CRF2α promoter. In addition to treating the cultures with CRF and urocortin (1 μM each), A7R5 cultures also were treated with either of the antagonists alone D-Phe or DMP696 (1 μM each), CRF plus D-Phe (1 μM each), CRF plus DMP696 (1 μM each), urocortin plus D-Phe (1 μM each), and with urocortin plus DMP696 (1 μM each). D-Phe is a non-selective CRF receptor antagonist, blocking both CRF1 and CRF2 receptors, whereas DMP696 is specific to CRF1 receptors. A7R5 cultures are known to express CRF2 receptors and should be a highly appropriate cell type to monitor CRF2α receptor expression.
In a separate experiment the effects of forskolin and dexamethasone were compared to DMSO control A7R5 cultures. […] These findings are consistent with those seen in the CHO-K1 cultures.

[2] = system: full-length CRF2α receptor promoter (−3898 construct); test: Luciferase reporter expression from the full-length (−3898) CRF2α receptor promoter construct in transfected CHO-K1 cultures; format: cell-based, human; conditions: CHO-K1, −3898 construct, forskolin 10 μM without IBMX, 24 hours; for change in expression from the full-length CRF2α promoter compared with control cultures: CRF, urocortin, dexamethasone 1 μM, vs untreated (CRF, urocortin) or DMSO control
Protocol: as §1
A stated goal for the constructs is the ability to identify agents that can alter expression of the CRF2α gene. […] Using methods previously described in this application, CHO-K1 cultures were transfected with the −3898 construct and the pRL-TK internal control construct. These cultures were then treated with either CRF (1 μM), urocortin (1 μM), dexamethasone (1 μM), forskolin (10 μM), or the appropriate control at the time of transfection. […]

Compound	effect of antagonist on CRF or urocortin induced reduction in expression from the full length promoter [1]	change in expression from the full-length CRF2α promoter compared with control cultures [2]	change in expression from the −3898 construct compared to untreated control cultures [1]	mean expression (firefly luciferase activity normalized to Renilla luciferase) ([2]; DMSO control mean 0.411±0.004, p<0.001)
COCC(COC)Nc1nc(C)nc2c(-c3ccc(Cl)cc3Cl)c(C)nn12 [DMP696]	did not affect either the CRF or urocortin induced reduction in expression			
CRF: hormone and neurotransmitter; ligand for the CRF receptors		did not significantly change expression	significantly decrease expression	
C=C[C@@]1(C)CC(=O)[C@]2(O)[C@@]3(C)[C@@H](O)CCC(C)(C)[C@@H]3[C@H](O)[C@H](OC(C)=O)[C@@]2(C)O1 [forskolin]				0.302±0.012
urocortin: neurotransmitter similar to CRF; ligand for the CRF receptors (DNPSLSIDLTFHLLRTLLELARTQSQRERAEQNRIIFDSV; ends and bridges not checked; UniProt P55089 83-122, looked up)		did not significantly change expression	significantly decrease expression	
D-Phe	brought expression from the full length promoter back to the levels seen in the untreated controls			
